Data reported in patent US11168086B2, “Methods of synthesizing pyrazine compounds” (Hoffmann-La Roche Inc., priority 2015, dated 2021).

Test system: HBV
Assay: HBV inhibition assay: anti-HBV activity in vitro in HepG2.2.15 cells (extracellular HBV DNA by qPCR)
Format: cell-based
Conditions: Hepatitis B virus, 120 h, five days after compound treatment, extracellular HBV DNA in culture supernatant by qPCR, concentration at which HBV replication is inhibited by 50%
Summary of the method: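 HepG2.2.15 cells (stably carrying HBV genome) treated with half-log serially diluted compounds at 0.5% DMSO final for five days. Extracellular HBV DNA in supernatant quantified by qPCR after Proteinase K digestion; EC50 is concentration giving 50% inhibition of replication.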

C[C@H]1Cn2ncc(N3C[C@H](O)CC3=O)c2CN1C(=O)Nc1cc(F)c(F)c(F)c1 [Example 376, (6S)-3-[(4R)-4-hydroxy-2-oxo-pyrrolidin-1-yl]-6-methyl-N-(3,4,5-trifluorophenyl)-6,7-dihydro-4H-pyrazolo[1,5-a]pyrazine-5-carboxamide] showed an EC50 of 88 nM.

Compound CO[C@H]1CC(=O)N(c2cnn3c2CN(C(=O)Nc2cc(F)c(F)c(F)c2)[C@@H](C)C3)C1 [Example 378, (6S)-3-[(4S)-4-methoxy-2-oxo-pyrrolidin-1-yl]-6-methyl-N-(3,4,5-trifluorophenyl)-6,7-dihydro-4H-pyrazolo[1,5-a]pyrazine-5-carboxamide] has an EC50 of 28 nM.

With C[C@H]1Cn2ncc(N3CC(c4nccs4)CC3=O)c2CN1C(=O)Nc1cc(F)c(F)c(F)c1 (stereo partly drawn) [Example 291, (6S)-6-methyl-3-(2-oxo-4-thiazol-2-yl-pyrrolidin-1-yl)-N-(3,4,5-trifluorophenyl)-6,7-dihydro-4H-pyrazolo[1,5-a]pyrazine-5-carboxamide] the EC50 was 7 nM.

C[C@@H]1CN(C(=O)C2CC(=O)N(c3cnn4c3CN(C(=O)Nc3cc(F)c(F)c(F)c3)[C@@H](C)C4)C2)C[C@@H](C)O1 (stereo partly drawn) [Example 396, (6S)-3-[4-[trans-2,6-dimethylmorpholine-4-carbonyl]-2-oxo-pyrrolidin-1-yl]-6-methyl-N-(3,4,5-trifluorophenyl)-6,7-dihydro-4H-pyrazolo[1,5-a]pyrazine-5-carboxamide] gave an EC50 of 58 nM.

With C[C@H]1Cn2ncc(N3CC(c4ccncc4)OC3=O)c2CN1C(=O)Nc1cc(F)c(F)c(F)c1 (stereo partly drawn) [Example 346, (6S)-6-methyl-3-[2-oxo-5-(4-pyridyl)oxazolidin-3-yl]-N-(3,4,5-trifluorophenyl)-6,7-dihydro-4H-pyrazolo[1,5-a]pyrazine-5-carboxamide] the EC50 was 12 nM.

In the case of C[C@H]1Cn2ncc(N3CCCC3=O)c2CN1C(=O)Nc1ccc(F)c(Cl)c1 [Example 355, (6S)—N-(3-chloro-4-fluoro-phenyl)-6-methyl-3-(2-oxopyrrolidin-1-yl)-6,7-dihydro-4H-pyrazolo[1,5-a]pyrazine-5-carboxamide], the EC50 is reported as 36 nM.

For C[C@H]1Cn2ncc(N3CC(C)(C#N)CC3=O)c2CN1C(=O)Nc1cc(F)c(F)c(C(F)F)c1 (stereo partly drawn) [Example 361, (6S)-3-(4-cyano-4-methyl-2-oxo-pyrrolidin-1-yl)-N-[3-(difluoromethyl)-4,5-difluoro-phenyl]-6-methyl-6,7-dihydro-4H-pyrazolo[1,5-a]pyrazine-5-carboxamide], the EC50 was 11 nM.

With O=C(Nc1ccc(F)c(Cl)c1)N1CCn2ncc(-c3ccccc3F)c2C1 [Example 24, N-(3-chloro-4-fluoro-phenyl)-3-(2-fluorophenyl)-6,7-dihydro-4H-pyrazolo[1,5-a]pyrazine-5-carboxamide] the EC50 was 33 nM.

Work on C[C@H]1Cn2ncc(N3CC(c4ccncc4)CC3=O)c2CN1C(=O)Nc1cc(F)c(F)c(F)c1 (stereo partly drawn) [Example 354, (6S)-6-methyl-3-[2-oxo-4-(4-pyridyl)pyrrolidin-1-yl]-N-(3,4,5-trifluorophenyl)-6,7-dihydro-4H-pyrazolo[1,5-a]pyrazine-5-carboxamide] yielded an EC50 of 13 nM.

For Cc1ncc(C2CC(=O)N(c3cnn4c3CN(C(=O)Nc3cc(F)c(F)c(F)c3)[C@@H](C)C4)C2)o1 (stereo partly drawn) [Example 349, (6S)-6-methyl-3-[4-(2-methyloxazol-5-yl)-2-oxo-pyrrolidin-1-yl]-N-(3,4,5-trifluorophenyl)-6,7-dihydro-4H-pyrazolo[1,5-a]pyrazine-5-carboxamide], the EC50 was 15 nM.

Compound C[C@H]1Cn2ncc(N3CC(C(=O)N4CCOC(C)(C)C4)CC3=O)c2CN1C(=O)Nc1cc(F)c(F)c(F)c1 (stereo partly drawn) [Example 393, (6S)-3-[4-(2,2-dimethylmorpholine-4-carbonyl)-2-oxo-pyrrolidin-1-yl]-6-methyl-N-(3,4,5-trifluorophenyl)-6,7-dihydro-4H-pyrazolo[1,5-a]pyrazine-5-carboxamide] has an EC50 of 70 nM.
